Data from patent publication US20090306031A1, “5alpha-ANDROSTANE-3,6,17-TRIONE (KNELLER'S TRIONE) AND METHODS OF USE THEREFOR” (priority 2009, published 2009).

What was measured:
[1] = Pilot study: adverse events and safety observations in study subjects; assay type: in vivo, human
[2] = Pilot study: sex hormone profile in men after oral daily Kneller's Trione; assay type: in vivo, human; details: for ending testosterone-to-estradiol ratio: day 14, ratio to 1; for change of testosterone-to-estradiol ratio: starting vs ending (14 days); for ESTRADIOL / BIOAVAILABLE TESTOSTERONE / DHT / TOTAL TESTOSTERONE: person
Description: The first study subject was a person who was dosed once per day orally with 25 mg per day of Kneller's Trione.
The second study subject was a person who was dosed once per day orally with 50 mg per day of Kneller's Trione.
The third study subject was a person who was dosed once per day orally with 100 mg per day of Kneller's Trione.

[3] = 25 mg daily oral, 14 days vs baseline
[4] = 50 mg daily oral, 14 days vs baseline
[5] = 100 mg daily oral, 14 days vs baseline

## C[C@]12CCC(=O)C[C@@H]1C(=O)C[C@@H]1[C@@H]2CC[C@]2(C)C(=O)CC[C@@H]12 [Kneller's Trione, 5α-androstane-3,6,17-trione]
[1]; 750 mg per day oral, subject withdrew from the pilot study
  adverse event: occurrence of a priaprism
[1]; every subject, frequent intervals, oral daily dosages 25 mg to 750 mg
  liver function, kidney function, blood lipid levels, blood pressure, heart rate, respirations, body temperature: within medically established normal ranges and values
[1]; oral daily dosages 25 mg to 750 mg
  other adverse events noted by any study subject: No other adverse events were noted
[2]; [3]
  increase in plasma bioavailable testosterone: 20%
  increase in plasma total testosterone: 13%
  reduction in plasma estradiol: 51%
[2]; 25 mg daily oral, starting ratio 133.83 to 1
  ending testosterone-to-estradiol ratio: 308.26
[2]; 25 mg daily oral
  change of testosterone-to-estradiol ratio: 130%
[2]; [4]
  change in plasma estradiol: no change
  increase in plasma bioavailable testosterone: 21%
  increase in plasma total testosterone: 28%
[2]; 50 mg daily oral, starting ratio 238.06 to 1
  ending testosterone-to-estradiol ratio: 305.56
[2]; 50 mg daily oral
  change of testosterone-to-estradiol ratio: 28%
[2]; [5]
  increase in plasma bioavailable testosterone: 146%
  increase in plasma total testosterone: 93%
  reduction in plasma estradiol: 26%
[2]; 100 mg daily oral, starting ratio 102.17 to 1
  ending testosterone-to-estradiol ratio: 266.18
[2]; 100 mg daily oral
  change of testosterone-to-estradiol ratio: 161%
[2]; 250 mg per day oral
  added benefit over a dose of 100 mg per day: did not seem to offer any added benefit
  total testosterone and bioavailable testosterone levels: raised total testosterone and bioavailable testosterone levels substantially and safely
[2]; 500 mg per day oral
  added benefit over a dose of 100 mg per day: did not seem to offer any added benefit
  total testosterone and bioavailable testosterone levels: raised total testosterone and bioavailable testosterone levels substantially and safely
[2]; 750 mg per day oral
  added benefits of high dosage: no added benefits were seen
[2]; general statement, dose not stated
  plasma testosterone levels in men: substantial and significant increases
[2]; general statement, relative to accepted normal limits
  plasma estradiol levels in men: no changes outside the accepted normal limits
[2]; oral administration, dose not stated
  increase of plasma free testosterone levels: more than 100%
[2]; 25 mg per day oral single dose, DAY 7, baseline 47 pg/mL
  ESTRADIOL: 28 pg/mL
[2]; 25 mg per day oral single dose, DAY 7, baseline 843 pg/mL
  BIOAVAILABLE TESTOSTERONE: 966 pg/mL
[2]; 25 mg per day oral single dose, DAY 7, baseline 42 ng/dL
  DHT: 36 ng/dL
[2]; 25 mg per day oral single dose, DAY 7, baseline (day 0) 6,290 pg/mL
  TOTAL TESTOSTERONE: 6,400 pg/mL
[2]; 25 mg per day oral single dose, DAY 14, baseline 47 pg/mL
  ESTRADIOL: 23 pg/mL
[2]; 25 mg per day oral single dose, DAY 14, baseline 843 pg/mL
  BIOAVAILABLE TESTOSTERONE: 1,014 pg/mL
[2]; 25 mg per day oral single dose, DAY 14, baseline 42 ng/dL
  DHT: 49 ng/dL
[2]; 25 mg per day oral single dose, DAY 14, baseline (day 0) 6,290 pg/mL
  TOTAL TESTOSTERONE: 7,090 pg/mL
[2]; 50 mg per day oral single dose, DAY 7, baseline 36 pg/mL
  ESTRADIOL: 35 pg/mL
[2]; 50 mg per day oral single dose, DAY 7, baseline 169.7 pg/mL
  BIOAVAILABLE TESTOSTERONE: 209 pg/mL
[2]; 50 mg per day oral single dose, DAY 7, baseline 47 ng/dL
  DHT: 46 ng/dL
[2]; 50 mg per day oral single dose, DAY 7, baseline (day 0) 8,570 pg/mL
  TOTAL TESTOSTERONE: 11,000 pg/mL
[2]; 50 mg per day oral single dose, DAY 14, baseline 36 pg/mL
  ESTRADIOL: 36 pg/mL
[2]; 50 mg per day oral single dose, DAY 14, baseline 169.7 pg/mL
  BIOAVAILABLE TESTOSTERONE: 209 pg/mL
[2]; 50 mg per day oral single dose, DAY 14, baseline 47 ng/dL
  DHT: 49 ng/dL
[2]; 50 mg per day oral single dose, DAY 14, baseline (day 0) 8,570 pg/mL
  TOTAL TESTOSTERONE: 11,000 pg/mL
[2]; 100 mg per day oral single dose, DAY 7, baseline 46 pg/mL
  ESTRADIOL: 44 pg/mL
[2]; 100 mg per day oral single dose, DAY 7, baseline 794 pg/mL
  BIOAVAILABLE TESTOSTERONE: 1,432 pg/mL
[2]; 100 mg per day oral single dose, DAY 7, baseline 35 ng/dL
  DHT: 48 ng/dL
[2]; 100 mg per day oral single dose, DAY 7, baseline (day 0) 4,700 pg/mL
  TOTAL TESTOSTERONE: 7,910 pg/mL
[2]; 100 mg per day oral single dose, DAY 14, baseline 46 pg/mL
  ESTRADIOL: 34 pg/mL
[2]; 100 mg per day oral single dose, DAY 14, baseline 794 pg/mL
  BIOAVAILABLE TESTOSTERONE: 1,957 pg/mL
[2]; 100 mg per day oral single dose, DAY 14, baseline 35 ng/dL
  DHT: 41 ng/dL
[2]; 100 mg per day oral single dose, DAY 14, baseline (day 0) 4,700 pg/mL
  TOTAL TESTOSTERONE: 9,050 pg/mL
